Source: paper PMC7707621, “Oxidized Juncuenin B Analogues with Increased Antiproliferative Activity on Human Adherent Cell Lines: Semisynthesis and Biological Evaluation” (Journal of Natural Products, 2020)

The molecules below were run on HeLa cells (assay: MTT antiproliferative assay on HeLa). Conditions: Homo sapiens, HeLa, 10 μM; read-out: Growth inhibition (% ± SEM), HeLa.
Assay type: cell-based, human
Procedure: (§1) The antiproliferative assays of the products were carried out by a standard MTT method on human breast (MCF-7, T47D), cervical (HeLa, SiHa, C33A), and ovarian (A2780) cancer cells, and NIH/3T3 mouse embryonic fibroblast cell lines. In the first step, the diastereomeric and racemic mixtures 1–11 and the starting compound, juncuenin B, were tested to obtain information about their antiproliferative activity.
(§2) The antiproliferative activity and tumor selectivity of the compounds were measured by standard MTT assays. Tumor cell lines MCF-7, T47D, HeLa, A2780, and noncancerous NIH/3T3 were provided by European Collection of Authenticated Cell Cultures (ECACC, Salisbury, UK); cell lines SiHa and C33A by LGC Standards GmbH (Wesel, Germany). All chemicals and materials used for the antiproliferative assays were purchased from Sigma Aldrich Ltd. (Budapest, Hungary).
(§3) Growth-inhibition properties of racemates and pure enantiomer compounds were determined by standard MTT assays on six human malignant gynecological cell lines (MCF-7, T47D, HeLa, SiHa, C33A, A2780). To investigate tumor selectivity, the MTT assay was repeated on mouse embryonic fibroblast cells (NIH/3T3) under the same conditions. All cell lines were maintained in minimal essential medium (MEM) supplemented with 10% fetal bovine serum, 1% nonessential amino acids, and 1% penicillin–streptomycin–amphotericin B mixture, and were stored in humidified air containing 5% CO2 at 37 °C. All cell types were seeded into 96–well plates at a density of 5000 with the exception of C33a, which was seeded at a density of 10 000 and treated by increasing concentrations (0.1–30 μM) of the compounds for 72 h under cell culturing conditions. After the incubation, 5 mg/mL MTT [3-(4,5-dimethylthiazol-2-yl)-2,5-diphenyltetrazolium bromide] solution was added to samples for 4 h and precipitated blue formazan crystals were dissolved in DMSO. Absorbance values of the samples were measured at 545 nm using a microplate reader (Stat Fax-2100, Awareness Technologies Inc., Palm City, FL, USA) and untreated cells were used as control. Normalized sigmoidal dose–response curves were fitted to the determined data and the IC50 values were calculated by GraphPad Prism 5.01 (GraphPad Software, San Diego, CA, USA). Cisplatin (Ebewe Pharma GmbH, Unterach, Austria) was used as a reference agent in the same concentration range.

Compared with `C=CC1=C(C)C(=O)C=C2C3=C(CCC21OC)C(C)(OC)C(=O)C=C3` (centres unmarked) [1a–1d, 2,6-dioxo-1,8a-dimethoxy-1,7-dimethyl-8-vinyl-9,10-dihydrophenanthrenes], `C=CC1=C(C)C(=O)C=C2C3=C(CC[C@@]21OC)[C@@](C)(OC)C(=O)C=C3` [Compound 1a, 2,6-dioxo-1,8a-dimethoxy-1,7-dimethyl-8-vinyl-9,10-dihydrophenanthrenes] is lower in inhibition at 10 µM: 12.7 ± 1.94% for the first, less than 10% for the second.

Same assay, conditions: Homo sapiens, HeLa, 30 μM; read-out: Growth inhibition (% ± SEM), HeLa

First: C=CC1=C(C)C(=O)C=C2C3=C(CCC21OC)C(C)(OC)C(=O)C=C3 (centres unmarked) [1a–1d, 2,6-dioxo-1,8a-dimethoxy-1,7-dimethyl-8-vinyl-9,10-dihydrophenanthrenes]
Second: C=CC1=C(C)C(=O)C=C2C3=C(CC[C@@]21OC)[C@@](C)(OC)C(=O)C=C3 [Compound 1a, 2,6-dioxo-1,8a-dimethoxy-1,7-dimethyl-8-vinyl-9,10-dihydrophenanthrenes]
The inhibition at 30 µM of the first is higher: 86.7 ± 1.22% for the first, 47.8 ± 3.28% for the second.

Same assay, conditions: Homo sapiens, HeLa; MTT, 0.1–30 μM, 72 h, mean ± SEM; read-out: calculated IC50 values, HeLa

Work on `C=CC1=C(C)C(=O)C=C2C3=C(CC[C@@]21OC)[C@@](C)(OC)C(=O)C=C3` [Compound 1a, 2,6-dioxo-1,8a-dimethoxy-1,7-dimethyl-8-vinyl-9,10-dihydrophenanthrenes] yielded an IC50 greater than 30 µM.

What follows are molecules tested on C33A cells (assay: MTT antiproliferative assay on C33A). Conditions: Homo sapiens, C-33-A, 10 μM; read-out: Growth inhibition (% ± SEM), C33a.
Assay type: cell-based, human
Procedure: as §1, §2, §3

Compared with `C=CC1=C(C)C(=O)C=C2C3=C(CCC21OC)C(C)(OC)C(=O)C=C3` (centres unmarked) [1a–1d, 2,6-dioxo-1,8a-dimethoxy-1,7-dimethyl-8-vinyl-9,10-dihydrophenanthrenes], `C=CC1=C(C)C(=O)C=C2C3=C(CC[C@@]21OC)[C@@](C)(OC)C(=O)C=C3` [Compound 1a, 2,6-dioxo-1,8a-dimethoxy-1,7-dimethyl-8-vinyl-9,10-dihydrophenanthrenes] is lower in inhibition at 10 µM: 74.3 ± 0.8% for the first, 19.5 ± 2.08% for the second.

Same assay, conditions: Homo sapiens, C-33-A, 30 μM; read-out: Growth inhibition (% ± SEM), C33a

Compared with `C=CC1=C(C)C(=O)C=C2C3=C(CCC21OC)C(C)(OC)C(=O)C=C3` (centres unmarked) [1a–1d, 2,6-dioxo-1,8a-dimethoxy-1,7-dimethyl-8-vinyl-9,10-dihydrophenanthrenes], `C=CC1=C(C)C(=O)C=C2C3=C(CC[C@@]21OC)[C@@](C)(OC)C(=O)C=C3` [Compound 1a, 2,6-dioxo-1,8a-dimethoxy-1,7-dimethyl-8-vinyl-9,10-dihydrophenanthrenes] is lower in inhibition at 30 µM: 94.97 ± 0.12% for the first, 87.97 ± 0.34% for the second.

These molecules were tested on T47D cells (assay: MTT antiproliferative assay on T47D). Conditions: Homo sapiens, T47D, 10 μM; read-out: Growth inhibition (% ± SEM), T47d.
Assay type: cell-based, human
Procedure: as §1, §2, §3

`C=CC1=C(C)C(=O)C=C2C3=C(CCC21OC)C(C)(OC)C(=O)C=C3` (centres unmarked) [1a–1d, 2,6-dioxo-1,8a-dimethoxy-1,7-dimethyl-8-vinyl-9,10-dihydrophenanthrenes] and `C=CC1=C(C)C(=O)C=C2C3=C(CC[C@@]21OC)[C@@](C)(OC)C(=O)C=C3` [Compound 1a, 2,6-dioxo-1,8a-dimethoxy-1,7-dimethyl-8-vinyl-9,10-dihydrophenanthrenes] are within error of each other in inhibition at 10 µM: 14.6 ± 4.44% for the first, 14.1 ± 1.87% for the second.

Same assay, conditions: Homo sapiens, T47D, 30 μM; read-out: Growth inhibition (% ± SEM), T47d

Going from `C=CC1=C(C)C(=O)C=C2C3=C(CCC21OC)C(C)(OC)C(=O)C=C3` (centres unmarked) [1a–1d, 2,6-dioxo-1,8a-dimethoxy-1,7-dimethyl-8-vinyl-9,10-dihydrophenanthrenes] to `C=CC1=C(C)C(=O)C=C2C3=C(CC[C@@]21OC)[C@@](C)(OC)C(=O)C=C3` [Compound 1a, 2,6-dioxo-1,8a-dimethoxy-1,7-dimethyl-8-vinyl-9,10-dihydrophenanthrenes], the inhibition at 30 µM falls from 76 ± 2.1% to 32.5 ± 1.96%.

Same assay, conditions: Homo sapiens, T47D; MTT, 0.1–30 μM, 72 h, mean ± SEM; read-out: calculated IC50 values, T47D

For `C=CC1=C(C)C(=O)C=C2C3=C(CC[C@@]21OC)[C@@](C)(OC)C(=O)C=C3` [Compound 1a, 2,6-dioxo-1,8a-dimethoxy-1,7-dimethyl-8-vinyl-9,10-dihydrophenanthrenes], the IC50 was greater than 30 µM.

Each molecule was assayed on SiHa cells (assay: MTT antiproliferative assay on SiHa). Conditions: Homo sapiens, SiHa, 10 μM; read-out: Growth inhibition (% ± SEM), SiHa.
Assay type: cell-based, human
Procedure: as §1, §2, §3

Going from `C=CC1=C(C)C(=O)C=C2C3=C(CCC21OC)C(C)(OC)C(=O)C=C3` (centres unmarked) [1a–1d, 2,6-dioxo-1,8a-dimethoxy-1,7-dimethyl-8-vinyl-9,10-dihydrophenanthrenes] to `C=CC1=C(C)C(=O)C=C2C3=C(CC[C@@]21OC)[C@@](C)(OC)C(=O)C=C3` [Compound 1a, 2,6-dioxo-1,8a-dimethoxy-1,7-dimethyl-8-vinyl-9,10-dihydrophenanthrenes], the inhibition at 10 µM falls from 18.1 ± 3.53% to less than 10%.

Same assay, conditions: Homo sapiens, SiHa, 30 μM; read-out: Growth inhibition (% ± SEM), SiHa

First: C=CC1=C(C)C(=O)C=C2C3=C(CCC21OC)C(C)(OC)C(=O)C=C3 (centres unmarked) [1a–1d, 2,6-dioxo-1,8a-dimethoxy-1,7-dimethyl-8-vinyl-9,10-dihydrophenanthrenes]
Second: C=CC1=C(C)C(=O)C=C2C3=C(CC[C@@]21OC)[C@@](C)(OC)C(=O)C=C3 [Compound 1a, 2,6-dioxo-1,8a-dimethoxy-1,7-dimethyl-8-vinyl-9,10-dihydrophenanthrenes]
The inhibition at 30 µM of the first is higher: 77.9 ± 0.78% for the first, less than 10% for the second.

Same assay, conditions: Homo sapiens, SiHa; MTT, 0.1–30 μM, 72 h, mean ± SEM; read-out: calculated IC50 values, SiHa

Going from `C=CC1=C(C)C(=O)C=C2C3=C(CCC21OC)C(C)(OC)C(=O)C=C3` (centres unmarked) [1a–1d, 2,6-dioxo-1,8a-dimethoxy-1,7-dimethyl-8-vinyl-9,10-dihydrophenanthrenes] to `C=CC1=C(C)C(=O)C=C2C3=C(CC[C@@]21OC)[C@@](C)(OC)C(=O)C=C3` [Compound 1a, 2,6-dioxo-1,8a-dimethoxy-1,7-dimethyl-8-vinyl-9,10-dihydrophenanthrenes], the IC50 rises from 20 µM to greater than 30 µM. The first is the more potent here.

The molecules below were run on A2780 cells (assay: MTT antiproliferative assay on A2780). Conditions: Homo sapiens, A2780, 10 μM; read-out: Growth inhibition (% ± SEM), A2780.
Assay type: cell-based, human
Procedure: as §1, §2, §3

First: C=CC1=C(C)C(=O)C=C2C3=C(CCC21OC)C(C)(OC)C(=O)C=C3 (centres unmarked) [1a–1d, 2,6-dioxo-1,8a-dimethoxy-1,7-dimethyl-8-vinyl-9,10-dihydrophenanthrenes]
Second: C=CC1=C(C)C(=O)C=C2C3=C(CC[C@@]21OC)[C@@](C)(OC)C(=O)C=C3 [Compound 1a, 2,6-dioxo-1,8a-dimethoxy-1,7-dimethyl-8-vinyl-9,10-dihydrophenanthrenes]
The inhibition at 10 µM of the first is higher: 67.1 ± 1.37% for the first, 25.1 ± 1.6% for the second.

Same assay, conditions: Homo sapiens, A2780, 30 μM; read-out: Growth inhibition (% ± SEM), A2780

First: C=CC1=C(C)C(=O)C=C2C3=C(CCC21OC)C(C)(OC)C(=O)C=C3 (centres unmarked) [1a–1d, 2,6-dioxo-1,8a-dimethoxy-1,7-dimethyl-8-vinyl-9,10-dihydrophenanthrenes]
Second: C=CC1=C(C)C(=O)C=C2C3=C(CC[C@@]21OC)[C@@](C)(OC)C(=O)C=C3 [Compound 1a, 2,6-dioxo-1,8a-dimethoxy-1,7-dimethyl-8-vinyl-9,10-dihydrophenanthrenes]
The inhibition at 30 µM of the first is higher: 94.93 ± 0.94% for the first, 87.7 ± 1.1% for the second.

Same assay, conditions: Homo sapiens, A2780; MTT, 0.1–30 μM, 72 h, mean ± SEM; read-out: calculated IC50 values, A2780

`C=CC1=C(C)C(=O)C=C2C3=C(CC[C@@]21OC)[C@@](C)(OC)C(=O)C=C3` [Compound 1a, 2,6-dioxo-1,8a-dimethoxy-1,7-dimethyl-8-vinyl-9,10-dihydrophenanthrenes] was tested, and the IC50 was 13.3 ± 1.5 µM.

The molecules below were run on MCF-7 cells (assay: MTT antiproliferative assay on MCF-7). Conditions: Homo sapiens, MCF7, 10 μM; read-out: Growth inhibition (% ± SEM), MCF-7.
Assay type: cell-based, human
Procedure: as §1, §2, §3

Going from `C=CC1=C(C)C(=O)C=C2C3=C(CCC21OC)C(C)(OC)C(=O)C=C3` (centres unmarked) [1a–1d, 2,6-dioxo-1,8a-dimethoxy-1,7-dimethyl-8-vinyl-9,10-dihydrophenanthrenes] to `C=CC1=C(C)C(=O)C=C2C3=C(CC[C@@]21OC)[C@@](C)(OC)C(=O)C=C3` [Compound 1a, 2,6-dioxo-1,8a-dimethoxy-1,7-dimethyl-8-vinyl-9,10-dihydrophenanthrenes], the inhibition at 10 µM falls from 28.7 ± 1.81% to less than 10%.

Same assay, conditions: Homo sapiens, MCF7, 30 μM; read-out: Growth inhibition (% ± SEM), MCF-7

Compared with `C=CC1=C(C)C(=O)C=C2C3=C(CCC21OC)C(C)(OC)C(=O)C=C3` (centres unmarked) [1a–1d, 2,6-dioxo-1,8a-dimethoxy-1,7-dimethyl-8-vinyl-9,10-dihydrophenanthrenes], `C=CC1=C(C)C(=O)C=C2C3=C(CC[C@@]21OC)[C@@](C)(OC)C(=O)C=C3` [Compound 1a, 2,6-dioxo-1,8a-dimethoxy-1,7-dimethyl-8-vinyl-9,10-dihydrophenanthrenes] is lower in inhibition at 30 µM: 67.1 ± 1.9% for the first, 33.1 ± 1.15% for the second.

Same assay, conditions: Homo sapiens, MCF7; MTT, 0.1–30 μM, 72 h, mean ± SEM; read-out: calculated IC50 values, MCF-7

Compared with `C=CC1=C(C)C(=O)C=C2C3=C(CCC21OC)C(C)(OC)C(=O)C=C3` (centres unmarked) [1a–1d, 2,6-dioxo-1,8a-dimethoxy-1,7-dimethyl-8-vinyl-9,10-dihydrophenanthrenes], `C=CC1=C(C)C(=O)C=C2C3=C(CC[C@@]21OC)[C@@](C)(OC)C(=O)C=C3` [Compound 1a, 2,6-dioxo-1,8a-dimethoxy-1,7-dimethyl-8-vinyl-9,10-dihydrophenanthrenes] is higher in IC50: 11.6 µM for the first, greater than 30 µM for the second. The first is the more potent here.

The molecules below were run on NIH/3T3 mouse embryonic fibroblast cells (assay: MTT assay for tumor selectivity on NIH/3T3). Conditions: Mus musculus, NIH3T3; 10 μM; read-out: Growth inhibition (% ± SEM), NIH.
Assay type: cell-based
Procedure: as §1, §2, §3

Molecule `C=CC1=C(C)C(=O)C=C2C3=C(CC[C@@]21OC)[C@@](C)(OC)C(=O)C=C3` [Compound 1a, 2,6-dioxo-1,8a-dimethoxy-1,7-dimethyl-8-vinyl-9,10-dihydrophenanthrenes] has an inhibition at 10 µM of less than 10%.

Same assay, conditions: Mus musculus, NIH3T3; 30 μM; read-out: Growth inhibition (% ± SEM), NIH

`C=CC1=C(C)C(=O)C=C2C3=C(CC[C@@]21OC)[C@@](C)(OC)C(=O)C=C3` [Compound 1a, 2,6-dioxo-1,8a-dimethoxy-1,7-dimethyl-8-vinyl-9,10-dihydrophenanthrenes] was tested, and the inhibition at 30 µM was 32.1 ± 1.88%.

Same assay, conditions: Mus musculus, NIH3T3; MTT, 0.1–30 μM, 72 h, mean ± SEM; read-out: calculated IC50 values, NIH/3T3

Compared with `C=CC1=C(C)C(=O)C=C2C3=C(CCC21OC)C(C)(OC)C(=O)C=C3` (centres unmarked) [1a–1d, 2,6-dioxo-1,8a-dimethoxy-1,7-dimethyl-8-vinyl-9,10-dihydrophenanthrenes], `C=CC1=C(C)C(=O)C=C2C3=C(CC[C@@]21OC)[C@@](C)(OC)C(=O)C=C3` [Compound 1a, 2,6-dioxo-1,8a-dimethoxy-1,7-dimethyl-8-vinyl-9,10-dihydrophenanthrenes] is higher in IC50: 17.7 ± 0.7 µM for the first, greater than 30 µM for the second.
